The subject of experiment [1] is P. falciparum Dd2. The experiment can be described thus: Inhibition of in vitro P. falciparum culture, [3H]-hypoxanthine uptake, Dd2. The experiment is classed as cell-based. On the procedure: (§1) P. falciparum strains D10, 3D7, HB3, and Dd2 were obtained from the Malaria Research and Reference Reagent Resource Center (Manassas, Va.). The parasite strains were maintained in vitro by method of Trager and Jensen. The inhibition of P. falciparum growth in the presence of drug was assessed by the relative reduction of [^3H]-hypoxanthine uptake as previously described. Inhibition data were fitted to Equation 1 using non-linear regression analysis except that the relative velocity of parasite growth was substituted for the rate of product formation.

The target of experiment [2] is pfDHODH (Plasmodium falciparum (isolate 3D7), UniProt Q08210). The experiment can be described thus: DHODH chromogen reduction (DCIP) assay, pfDHODH. The format is biochemical, P. falciparum. From the text: (§2) Type 2 DHODH activity was monitored with either the direct assay measuring the formation of orotate or via a chromogen reduction assay using DCIP. Although the extinction coefficient and absorption wavelength are preferable for the chromogen reduction assay, the inorganic electron acceptor DCIP can be utilized by DHODH as the final electron acceptor in lieu of CoQn when the endogenous substrate is at a low concentration. As such, the direct assay was used to measure the binding affinity of pfDHODH to CoQD and L-DHO. The enzymatic reaction was performed by varying the L-DHO concentration (1-400 μM) or CoQD concentration (1-200 μM) while keeping the other substrate constant and in excess.
(§3) Substrate specificity and enzyme inhibition data was analyzed with GraphPad Prism Version 4 for Windows (GraphPad Software). Kinetic constants were calculated by non-linear regression fitting of the data to the Michaelis-Menten equation [36]. IC50 values were determined by non-linear regression fitting of the data to Equation 1: […]

The target in experiment [3] is hsDHODH (Homo sapiens (Human), UniProt Q02127). Nature of the experiment: DCIP assay, hsDHODH. The format is biochemical. The following applies: Table 2b; read-out: Hu (human DHODH) IC50.
Description: as §2, with “excess. The formation of orotate was measured continuously at 296 nm (ε296=4.3 mM^−1 cm^−1). Inhibition of DHODH by small molecules was evaluated using the chromogen based assay with a final substrate concentration of 200 μM L-DHO, 18 μM CoQD, and 100 μM DCIP, unless otherwise noted. The reduction of DCIP was monitored at 600 nm (ε600=18.8 mM^−1 cm^−1).” for “excess.”
as §3

Experiment [4] concerns P. falciparum 3D7. Nature of the experiment: Inhibition of in vitro P. falciparum culture, [3H]-hypoxanthine uptake, 3D7. The format is cell-based. On the procedure: as §1
The mark [5] stands for this setting: Plasmodium falciparum, DD2, Table 2b; read-out: Dd2 EC50.
Where [6] appears, read: Table 2b, read-out: pfDHODH IC50.
The mark [7] stands for this setting: Plasmodium falciparum, 3D7, Table 2b; read-out: 3D7 EC50.

Read-outs that look alike come from different tables or passages of the source. Where only a bound is given, the exact number is not on record here.

pfDHODH, sequence (Q08210 159-565 limits assumed): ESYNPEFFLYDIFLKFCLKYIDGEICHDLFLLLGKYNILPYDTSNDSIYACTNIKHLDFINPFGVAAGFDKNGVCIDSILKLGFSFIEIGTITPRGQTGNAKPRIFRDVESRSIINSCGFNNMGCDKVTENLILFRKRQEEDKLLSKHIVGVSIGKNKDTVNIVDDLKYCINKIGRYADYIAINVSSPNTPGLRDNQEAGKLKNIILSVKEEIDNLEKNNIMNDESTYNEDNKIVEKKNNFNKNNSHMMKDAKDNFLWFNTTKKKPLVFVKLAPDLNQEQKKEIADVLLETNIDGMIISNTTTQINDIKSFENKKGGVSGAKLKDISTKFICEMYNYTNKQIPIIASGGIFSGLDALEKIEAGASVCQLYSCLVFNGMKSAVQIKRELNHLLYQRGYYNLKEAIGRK
hsDHODH, sequence (Q02127 29-395 limits assumed): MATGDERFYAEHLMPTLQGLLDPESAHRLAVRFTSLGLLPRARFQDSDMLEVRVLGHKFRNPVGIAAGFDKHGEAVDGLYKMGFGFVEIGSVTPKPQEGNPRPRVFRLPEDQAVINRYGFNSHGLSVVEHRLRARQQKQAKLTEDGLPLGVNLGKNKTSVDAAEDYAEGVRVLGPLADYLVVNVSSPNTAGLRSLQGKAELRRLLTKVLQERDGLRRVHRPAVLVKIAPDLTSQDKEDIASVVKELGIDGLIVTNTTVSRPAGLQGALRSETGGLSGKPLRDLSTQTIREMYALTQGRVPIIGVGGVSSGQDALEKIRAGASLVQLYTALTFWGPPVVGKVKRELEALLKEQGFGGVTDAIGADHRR

In general, EC50 refers to the concentration needed to bring the measured effect to its halfway point. One may read the IC50 as the midpoint of a concentration-inhibition curve. Regarding `O=C(NC1CC1)c1ccc(-n2cnc3ccccc32)s1` [Compound 23], the EC50 in experiment [1] (setting [5]) amounted to 0.088 µM; in experiment [4] (setting [7]), 0.079 µM. Moreover, the 50% inhibitory concentration (IC50) was 0.056 µM in experiment [2] (setting [6]) and over 30 µM in experiment [3].
For `CNC(=O)c1ccc(-n2cnc3ccccc32)s1` [Compound 24] the same measures were 0.422 µM, 0.276 µM, 1.08 µM and over 30 µM.
On the same counts, the results for `CCNC(=O)c1ccc(-n2cnc3ccccc32)s1` [Compound 25] are 0.154 µM, 0.102 µM, 0.145 µM and over 30 µM.
Consider `NC(=O)c1ccc(-n2cnc3ccccc32)s1` [Compound 28], for which the results for the 50% effective concentration (EC50) in experiment [1] (setting [5]) and in experiment [4] (setting [7]) were 20 µM and over 40 µM, respectively. Also, the concentration for half-maximal inhibition (IC50) in experiment [2] (setting [6]) was over 30 µM.
On the same counts, the results for `CCCCNC(=O)c1ccc(-n2cnc3ccccc32)s1` [Compound 29] are 7.3 µM, 20 µM and 28.6 µM.
Take `O=C(NCCO)c1ccc(-n2cnc3ccccc32)s1` [Compound 30]: the half-maximal effective concentration (EC50) in experiment [1] (setting [5]) is 6.5 µM; in experiment [4] (setting [7]), 5.9 µM. In addition, the figures for the half-inhibitory concentration (IC50) in experiment [2] (setting [6]) and in experiment [3] were 14 µM and over 30 µM, respectively.
For `Cc1nc2ccccc2n1-c1ccc(C(=O)NC2CC2)s1` [Compound 31] the same measures were 0.106 µM, 0.066 µM, 0.099 µM and over 30 µM.
On to `Cc1nc2ccccc2n1-c1ccc(C(=O)NC2CC2)s1` [Compound 32], for which the concentration giving a half-maximal response (EC50) in experiment [1] (Table 2b; read-out: Dd2 EC50) is 0.114 µM; in experiment [4] (Table 2b; read-out: 3D7 EC50), 0.105 µM. Also, the IC50 is 0.074 µM in experiment [2] (setting [6]) and over 30 µM in experiment [3].
On the same counts, the results for `CCNC(=O)c1ccc(-n2c(C)nc3ccccc32)s1` [Compound 33] are 0.223 µM, 0.113 µM, 0.191 µM and over 30 µM.
As for `O=C(c1ccc(-n2cnc3ccccc32)s1)N1CCCCC1` [Compound 34], the EC50 in experiment [1] (setting [5]) and in experiment [4] (setting [7]) was over 20 µM throughout. In experiment [2] (setting [6]), the IC50 is over 30 µM.
For the molecule `O=C(NC1CCCC1)c1ccc(-n2cnc3ccccc32)s1` [Compound 35], the half-maximal effective concentration (EC50) in experiment [1] (setting [5]) was 5.5 µM; in experiment [4] (setting [7]), 4.4 µM. The results for the IC50 in experiment [2] (setting [6]) and in experiment [3] were 2.51 µM and over 30 µM, respectively.
In the case of `CC[C@H](C)NC(=O)c1ccc(-n2cnc3ccccc32)s1` [Compound 37], the half-maximal effective concentration (EC50) in experiment [1] (setting [5]) and in experiment [4] (setting [7]) was over 20 µM throughout. Besides, the IC50 in experiment [2] (setting [6]) was 17.9 µM.
`Cc1nc2cc(Cl)ccc2n1-c1ccc(C(=O)NC2CC2)s1` [Compound 41]: the EC50 is 0.083 µM in experiment [1] (read-out: Dd2 EC50; Table 2b) and 0.067 µM in experiment [4] (read-out: 3D7 EC50; Table 2b). This molecule also displayed a half-inhibitory concentration (IC50) in experiment [2] (pfDHODH IC50, Table 2b) of 0.04 µM.
For `O=C(NC1CC1)c1ccc(-n2c(O)nc3ccccc32)s1` [Compound 45], the EC50 in experiment [1] (setting [5]) and in experiment [4] (setting [7]) was 5 µM each time. Moreover, the half-inhibitory concentration (IC50) in experiment [2] (setting [6]) is over 30 µM.
With `O=C(c1ccc(-n2cnc3ccccc32)s1)N1CCC1` [Compound 46], the concentration for a half-maximal effect (EC50) in experiment [1] (setting [5]) and in experiment [4] (setting [7]) was 5 µM each time. For the same molecule, the IC50 in experiment [2] (setting [6]) stood at 16.5 µM.
Take `CC[C@@H](C)NC(=O)c1ccc(-n2cnc3ccccc32)s1` [Compound 47]: the EC50 in experiment [1] (setting [5]) and in experiment [4] (setting [7]) was over 5 µM each time. Further, the IC50 in experiment [2] (setting [6]) was over 30 µM.
On to `CCCN(C)C(=O)c1ccc(-n2cnc3ccccc32)s1` [Compound 48], for which the EC50 in experiment [1] (setting [5]) and in experiment [4] (setting [7]) was over 5 µM in each case. In addition, the IC50 in experiment [2] (setting [6]) is over 30 µM.
Regarding `CCCNC(=O)c1ccc(-n2cnc3cc(Cl)ccc32)s1` [Compound 56], the figures for the concentration for half-maximal inhibition (IC50) in experiment [2] (setting [6]) and in experiment [3] were 0.324 µM and over 30 µM, respectively. In addition, in experiment [4] (setting [7]), the EC50 was determined as 0.203 µM.
As to `Cc1nc2cnccc2n1-c1ccc(C(=O)NC2CC2)s1` [Compound 71], the EC50 in experiment [1] (setting [5]) stood at 6.3 µM; in experiment [4] (setting [7]), 3.7 µM. The 50% inhibitory concentration (IC50) in experiment [2] (setting [6]) stood at 3.08 µM.
For `Cc1nc2cccnc2n1-c1ccc(C(=O)NC2CC2)s1` [Compound 72] the same measures were 0.52 µM, 0.364 µM and 1.12 µM.
For the molecule `Cc1nc2ncccc2n1-c1ccc(C(=O)NC2CC2)s1` [Compound 73], the concentration giving a half-maximal response (EC50) in experiment [1] (setting [5]) amounted to 2.4 µM; in experiment [4] (setting [7]), 1.3 µM. Besides, in experiment [2] (setting [6]), the half-inhibitory concentration (IC50) came to 4.77 µM.
With `Cc1nc2ccccc2n1-c1cscc1C(=O)NC1CC1` [Compound 77, N-cyclopropyl-4-(2-methyl-1H-benzo[d]imidazol-1-yl)thiophene-3-carboxamide], the EC50 in experiment [1] (setting [5]) and in experiment [4] (setting [7]) was over 5 µM each time. In addition, the IC50 in experiment [2] (setting [6]) was over 30 µM.
With `Cc1nc2ccccc2n1-c1cc(C(=O)NC2CC2)cs1` [Compound 78, N-cyclopropyl-5-(2-methyl-1H-benzo[d]imidazol-1-yl)thiophene-3-carboxamide], the 50% effective concentration (EC50) in experiment [1] (setting [5]) is 2.05 µM; in experiment [4] (setting [7]), 1.02 µM. Besides, in experiment [2] (setting [6]), the IC50 turned out to be 1.7 µM.
On the same counts, the results for `Cn1c(-c2ccc(C(=O)NC3CC3)s2)nc2ccccc21` [Compound 79] are over 5 µM, over 5 µM and over 30 µM.
Consider `O=C(NC1CC1)c1ccc(-c2nc3ccccc3o2)s1` [Compound 80], for which the EC50 turned out to be 1.71 µM in experiment [1] (setting [5]) and 2.58 µM in experiment [4] (setting [7]). Besides, the IC50 in experiment [2] (setting [6]) is over 30 µM.
For `c1ccc2[nH]c(-c3ccc(-c4nc5ccccc5[nH]4)s3)nc2c1` [Compound 81] the same measures were over 5 µM, 5 µM and over 30 µM.
Take `Cn1c(-c2ccc(-c3nc4ccccc4n3C)s2)nc2ccccc21` [Compound 82]: the concentration giving a half-maximal response (EC50) in experiment [1] (setting [5]) and in experiment [4] (setting [7]) was over 5 µM in each case. For the same molecule, the half-inhibitory concentration (IC50) in experiment [2] (setting [6]) was over 30 µM.
Consider `c1ccc2oc(-c3ccc(-c4nc5ccccc5o4)s3)nc2c1` [Compound 83], for which the EC50 in experiment [1] (setting [5]) and in experiment [4] (setting [7]) was over 5 µM each time. The half-maximal inhibitory concentration (IC50) in experiment [2] (setting [6]) was over 30 µM.
Consider `CCCCC(O)c1ccc(-n2cnc3ccccc32)s1` (centres unmarked) [Compound 85, 1-[5-(1H-benzimidazol-1-yl)-2-thienyl]pentan-1-ol], for which the EC50 amounted to 5.9 µM in experiment [1] (setting [5]) and 20 µM in experiment [4] (setting [7]). In addition, in experiment [2] (setting [6]), the IC50 is over 30 µM.
On the same counts, the results for `CCCC/C(=N\O)c1ccc(-n2cnc3ccccc32)s1` [Compound 86, 1-[5-(1H-benzimidazol-1-yl)-2-thienyl]pentan-1-one oxime] are 20 µM, 10 µM and over 30 µM.
With `CCCC/C(=N/O)c1ccc(-n2cnc3ccccc32)s1` [Compound 87, 1-[5-(1H-benzimidazol-1-yl)-2-thienyl]pentan-1-one oxime], the EC50 in experiment [1] (setting [5]) turned out to be 10 µM; in experiment [4] (setting [7]), 40 µM. In addition, the IC50 in experiment [2] (setting [6]) was over 30 µM.
Turning to `CCCC/C(=N/OC)c1ccc(-n2cnc3ccccc32)s1` [Compound 88, 1-[5-(1H-benzimidazol-1-yl)-2-thienyl]pentan-1-one O-methyloxime], the half-maximal effective concentration (EC50) was determined as 2.6 µM in experiment [1] (setting [5]) and 5.4 µM in experiment [4] (setting [7]). The IC50 in experiment [2] (setting [6]) is over 30 µM.
For `CCCC/C(=N\OC)c1ccc(-n2cnc3ccccc32)s1` [Compound 89, 1-[5-(1H-benzimidazol-1-yl)-2-thienyl]pentan-1-one O-methyloxime] the same measures were 4.4 µM, 5.3 µM and over 30 µM.
On the same counts, the results for `CCNC(=O)c1ccc(-n2c(C)nc3cc(F)ccc32)cc1` [Compound 91] are over 0.5 µM, over 0.5 µM and 2.87 µM.
On the same counts, the results for `CCNC(=O)c1cccc(-n2c(C)nc3cc(F)ccc32)c1` [Compound 92] are over 1 µM, over 1 µM and over 30 µM.
In the case of `Cc1nc2cc3ccccc3cc2n1-c1ccc(C(=O)NC2CC2)s1` [Compound 93], the EC50 in experiment [1] (setting [5]) worked out at 0.019 µM; in experiment [4] (setting [7]), 0.017 µM. Besides, the concentration for half-maximal inhibition (IC50) in experiment [2] (setting [6]) was 0.035 µM.
On the same counts, the results for `Cc1nc2cc(OC(C)C)ccc2n1-c1ccc(C(=O)NC2CC2)s1` [Compound 94] are 0.061 µM, 0.051 µM and 0.121 µM.

The values are drawn from patent US8703811B2, “Small molecule inhibitors of Plasmodium falciparum dihydroorotate dehydrogenase” (Genzyme Corporation, priority 2008, dated 2014).
